Measurements reported in patent US20180289008A1, “METHODS FOR WILDFIRE CONTROL, INVASIVE PLANT CONTROL, AND RESIDUAL CONTROL OF INVASIVE PLANTS” (priority 2017, published 2018).
Where “and” joins values, the source holds several entries; their conditions need not be identical. Equal values may be shown once. Read-outs that look alike come from different tables or passages of the source.

Experiments:
[1] = tested on: downy brome, common mullein, Canada thistle, teasel, houndstongue, Scotch thistle, diffuse knapweed, field bindweed; assay: Seedling control of invasive weeds versus untreated (FIG. 4A-4D); details: in vivo
all nine weed species = assay: Greenhouse pre-emergence dose-response bioassay, across all nine weed species; format: in vivo; details: averaging across all nine weed species
Source text: A greenhouse experiment was designed to determine if the extended control of Dalmatian toadflax and downy brome provided by indaziflam in the field was due to increased residual seedling control. This experiment was designed to compare indaziflam's pre-emergence efficacy to the currently recommended herbicides (aminocyclopyrachlor and aminopyralid) for annual, biennial, and perennial weed control in non-crop areas. […] This allows for direct comparisons between herbicides on an active ingredient basis for aminopyralid, aminocyclopyrachlor, and indaziflam. […]
(§1) Plants were harvested at the soil surface approximately 4 to 5 week-after-treatment (WAT) depending on the growth stage of each species. Weights were recorded after samples were dried for 5 days at 60° C. Percent dry weight reduction was calculated relative to the non-treated control plants for each treatment.
Data from the greenhouse dose-response experiment were first analyzed using the PROC MIXED method in SAS 9.3 with treatment as a fixed effect and experiment and replicate as random effects (SAS Institute 2010). […] The herbicide concentrations resulting in 50% reduction in plant biomass (GR50) compared to the non-treated control were determined for each invasive weed species using four-parameter log-logistic regression. […]

[2] = tested on: downy brome (Bromus tectorum); assay: Greenhouse pre-emergence dose-response bioassay (GR50); format: in vivo
Source text: (§2) A greenhouse experiment was designed to determine if the extended control of Dalmatian toadflax and downy brome provided by indaziflam in the field was due to increased residual seedling control. This experiment was designed to compare indaziflam's pre-emergence efficacy to the currently recommended herbicides (aminocyclopyrachlor and aminopyralid) for annual, biennial, and perennial weed control in non-crop areas. […] This allows for direct comparisons between herbicides on an active ingredient basis for aminopyralid, aminocyclopyrachlor, and indaziflam.
(§3) For the greenhouse bioassay, seeds were planted at a constant depth of 0.5 cm in 13- by 9- by 6-cm plastic containers, filled with an Otero sandy clay loam field soil (Coarse-loamy, mixed (calcareous), mesic Aridic Ustorthents) with 3.9% OM and pH 7.7. Seeding densities were adjusted based on germinability to reach a target density of 40 plants/pot. Plants were maintained in a greenhouse with a 25/20° C. day/night temperature with natural light supplemented with high-intensity discharge lamps to give a 15-h photoperiod. Plants were sub-irrigated as needed and misted overhead daily to reduce soil crusting.
(§4) The greenhouse experiment was a completely randomized design with a factorial of seven herbicide rates and a non-treated control with three replicates per treatment. The experiments were conducted at two different times. A preliminary greenhouse study was conducted for each herbicide and species to determine a range of doses that would best fit a logistic regression. It is not unusual for both pre-emergence and post-emergence herbicides to provide control at lower than labeled rates, e.g., 0.5-560 g ai ha^−1 (aminocyclopyrachlor), 0.9-224 g ai ha^−1 (aminopyralid), and 0.05-11.7 g ai ha^−1 (indaziflam) in the greenhouse with ideal environmental conditions, so it was not surprising that herbicide doses for the regression analysis were much lower than recommended field use rates. Herbicides were applied pre-emergence using a Generation III research track sprayer (DeVries Manufacturing, Hollandale, Minn.) equipped with a TeeJet 8002 EVS flat-fan spray nozzle (TeeJet Spraying Systems Co., Wheaton, Ill.) at 187 L·ha-1 at 172 kPa.
as §1
(§5) Data from the greenhouse dose-response experiment were first analyzed using the PROC MIXED method in SAS 9.3 with treatment as a fixed effect and experiment and replicate as random effects (SAS Institute 2010). Based on a non-significant homogeneity of variance (ANOVA) and experiment-by-herbicide rate interaction, results from the repeated experiments were pooled. The treatment effect was significant, therefore, nonlinear regression in Graphpad Prism 7.00 (GraphPad Software, La Jolla Calif. USA) was used to describe the response of the nine weed species to aminocyclopyrachlor, aminopyralid, and indaziflam. The herbicide concentrations resulting in 50% reduction in plant biomass (GR50) compared to the non-treated control were determined for each invasive weed species using four-parameter log-logistic regression. The equation used to regress herbicide concentration with percent reduction in plant dry biomass as compared to the non-treated control was:
(§6) where C and D represent the lower and upper limits of the dose-response curve, respectively, and b represents the slope of the best-fitting curve through the GR50 value. For curve fitting and GR50 estimation, the model was constrained to a maximum of 100 and minimum of 0. Mean separation of herbicide GR50 values were analyzed by Fisher's Protected LSD test at the 5% level of probability. […]

[3] = tested on: Halogeton (Halogeton glomeratus); assay: as above; format: in vivo
Source text: as §2, §3, §4, §1, §5, §6

[4] = tested on: Diffuse knapweed (Centaurea diffusa); assay: as above; format: in vivo
Source text: as §2, §3, §4, §1, §5, §6

[5] = tested on: Marestail (Conyza Canadensis); assay: as above; format: in vivo
Source text: as §2, §3, §4, §1, §5, §6

[6] = tested on: Musk thistle (Carduus nutans); assay: as above; format: in vivo
Source text: as §2, §3, §4, §1, §5, §6

[7] = tested on: Common mullein (Verbascum thapsus); assay: as above; format: in vivo
Source text: as §2, §3, §4, §1, §5, §6

[8] = tested on: Dalmatian toadflax (Linaria dalmatica); assay: as above; format: in vivo
Source text: as §2, §3, §4, §1, §5, §6

[9] = tested on: Curly dock (Rumex crispus); assay: as above; format: in vivo
Source text: as §2, §3, §4, §1, §5, §6

[10] = tested on: Common teasel (Dipsacus fullonum); assay: as above; format: in vivo
Source text: as §2, §3, §4, §1, §5, §6

SMILES: Cc1ccc2c(c1)[C@H](Nc1nc(N)nc(C(C)F)n1)[C@@H](C)C2 (mixture of isomers) [Indaziflam, N2-[(1R,2S)-2,3-dihydro-2,6-dimethyl-1H-inden-1-yl]-6-[(1RS)-1-fluoroethyl]-1,3,5-triazine-2,4-diamine]
- seedling control of invasive weeds compared with the untreated (FIG. 4A-4D) [1]: improved seedling control of invasive weeds
- times more active than aminocyclopyrachlor (all nine weed species): 29
- times more active than aminopyralid (all nine weed species): 52
- GR50 ratio Aminocyclopyrachlor/Indaziflam [2]: 144.62
- GR50 ratio Aminopyralid/Indaziflam [2]: 98.72
- GR50 ratio Aminocyclopyrachlor/Indaziflam ([2]; listed as indaziflam): 125
- GR50 ratio Aminopyralid/Indaziflam ([2]; listed as indaziflam): 99
- GR50 (herbicide dose resulting in 50% dry biomass reduction) ([2]; pre-emergence): 0.39 a g ai ha^−1
- GR50 ratio Aminocyclopyrachlor/Indaziflam [3]: 2.89
- GR50 ratio Aminopyralid/Indaziflam [3]: 9 and 8.64
- GR50 (herbicide dose resulting in 50% dry biomass reduction) ([3]; pre-emergence): 0.36 a g ai ha^−1
- GR50 ratio Aminocyclopyrachlor/Indaziflam [4]: 10.69
- GR50 ratio Aminopyralid/Indaziflam [4]: 4 and 4.31
- GR50 (herbicide dose resulting in 50% dry biomass reduction) ([4]; pre-emergence): 0.58 a g ai ha^−1
- GR50 ratio Aminocyclopyrachlor/Indaziflam [5]: 12.29
- GR50 ratio Aminopyralid/Indaziflam [5]: 5 and 4.71
- GR50 (herbicide dose resulting in 50% dry biomass reduction) ([5]; pre-emergence): 0.17 a g ai ha^−1
- GR50 ratio Aminocyclopyrachlor/Indaziflam [6]: 3.79
- GR50 ratio Aminopyralid/Indaziflam [6]: 0.94
- GR50 (herbicide dose resulting in 50% dry biomass reduction) ([6]; pre-emergence): 0.33 a g ai ha^−1
- GR50 ratio Aminocyclopyrachlor/Indaziflam [7]: 44.57
- GR50 ratio Aminopyralid/Indaziflam [7]: 106 and 106.43
- GR50 (herbicide dose resulting in 50% dry biomass reduction) ([7]; pre-emergence): 0.07 a g ai ha^−1
- GR50 ratio Aminocyclopyrachlor/Indaziflam [8]: 19.33
- GR50 ratio Aminopyralid/Indaziflam [8]: 246.67
- GR50 ratio Aminocyclopyrachlor/Indaziflam ([8]; listed as indaziflam): 19
- GR50 ratio Aminopyralid/Indaziflam ([8]; listed as indaziflam): 247
- GR50 (herbicide dose resulting in 50% dry biomass reduction) ([8]; pre-emergence): 0.06 a g ai ha^−1
- GR50 ratio Aminocyclopyrachlor/Indaziflam [9]: 19.36
- GR50 ratio Aminopyralid/Indaziflam [9]: 1.14
- GR50 (herbicide dose resulting in 50% dry biomass reduction) ([9]; pre-emergence): 1.10 a g ai ha^−1
- GR50 ratio Aminocyclopyrachlor/Indaziflam [10]: 5.18
- GR50 ratio Aminopyralid/Indaziflam [10]: 0.56
- GR50 (herbicide dose resulting in 50% dry biomass reduction) ([10]; pre-emergence): 1.33 b g ai ha^−1
